Reference: patent publication EP3839043A1, “SCREENING METHODS FOR COMPOUNDS MODULATING POLYAMINE TRANSPORT” (Katholieke Universiteit Leuven, priority 2019, dated 2021)

Test system: isolated mouse cortical neurons
Test: TUNEL staining of SPM-treated primary neurons
Assay type: cell-based
Conditions: CA-074 10 µM; SPM 10 µM, 24 h; Atp13a2 knockdown neurons
Excerpt: Neuron isolation - Primary cortical neurons were derived from E16 FVB/N mice embryos. Pregnant mice were sacrificed on gestation day 16 by cervical dislocation. E16 mice pup brains were collected and placed in a dish containing calcium- and magnesium-free Hanks' Balanced Salt Solution (HBSS, Life Technologies, 14180-046) on ice. Both cerebral hemispheres were separated from the cerebellum. Meninges were removed from the cerebral hemispheres and the brain cortices dissected. Brain cortices were collected, washed twice and digested with 0.05% trypsin (Life Technologies, 25300-054, 10 min at 37°C). Trypsin reaction was terminated by the addition of 7 ml HBSS and 1 ml of horse serum. Cells were separated by pipetting and filtration through a cell strainer (40 µm, Falcon, 352340). Cells were centrifuged at 1,000 rpm for 5 min (4°C), the supernatant discarded and the pellet suspended in 5 ml Dulbecco's Modified Eagle Medium (DMEM; Sigma-Aldrich, D6546) containing GlutaMAX (Life Technologies, 31966-021) containing 5% horse serum (Life Technologies, 26050-088) and 20 mM glucose (Sigma-Aldrich, 8270). Primary cortical neurons were plated in 12 well plates, on cover slips coated with poly-D-lysine (Sigma-Aldrich, P6407). […]
TUNEL staining - TUNEL staining was assessed according to the manufacturer's protocol for the Click-iT Plus TUNEL assay (ThermoFisher, C10617). […]

## CCCNC(=O)[C@H]1O[C@@H]1C(=O)N[C@H](C(=O)N1CCC[C@H]1C(=O)O)[C@@H](C)CC [CA-074]
  SPM-induced neuronal death (TUNEL positivity): rescues SPM-induced neuronal death
